Patent US8835464B2, “Triazole compounds that modulate HSP90 activity” (Synta Pharmaceuticals Corp., priority 2006, dated 2014)
Structures can show the parent of a compound that is named as a salt. Where two headings read alike, the source gives them in different places.

System: Hsp90
Experiment: IC50 of compounds of the invention, Example B Method 2 (Tables 6-9)
Format: cell-based, human
Settings: Her2 degradation / inhibition of Hsp90, Method 2: MV-4-11 cells, 72 hours, Cell Counting Kit-8

**Q.** With `CC(C)c1cc(-c2nnc(O)n2-c2ccc(N3CCN(C)CC3)nc2)c(O)cc1O` [Compound 8d, 4-(5-hydroxy-4-(6-(4-methylpiperazin-1-yl)pyridin-3-yl)-4H-1,2,4-triazol-3-yl)-6-isopropylbenzene-1,3-diol] as the molecule, how does the IC50 (Table 9, read-out: IC50 Range) read?
**A.** The IC50 was 243 nM.

**Q.** `CC(C)c1cc(-c2nnc(SSc3nnc(-c4cc(C(C)C)c(O)cc4O)n3-c3ccc(N(C)C)cc3)n2-c2ccc(N(C)C)cc2)c(O)cc1O` [Compound 7b, 6,6′-(5,6-disulfanediylbis(4-(4-(dimethylamino)phenyl)-4H-1,2,4-triazole-5,3-diyl))bis(4-isopropylbenzene-1,3-diol)] was tested. Which IC50 (Table 8, read-out: IC50) did it give?
**A.** Its IC50 is 58 nM.

**Q.** Which IC50 (Table 8, read-out: IC50) does the source give for `CCc1cc(-c2nnc(S)n2-c2cccc3ccccc23)c(OC(=O)C(C)(C)C)cc1OC(=O)C(C)(C)C` [Compound 3b, 4-ethyl-6-(5-mercapto-4-(naphthalen-1-yl)-4H-1,2,4-triazol-3-yl)-1,3-phenylene bis(2,2-dimethylpropanoate)] here?
**A.** Its IC50 is > 2000 nM.

**Q.** `CC(C)c1cc(-c2nnc(NC(=O)c3ccccc3)n2-c2ccc3c(ccn3C)c2)c(O)cc1O` [Compound 9a, N-(5-(2,4-dihydroxy-5-isopropylphenyl)-4-(1-methyl-1H-indol-5-yl)-4H-1,2,4-triazol-3-yl)benzamide] was tested. Which IC50 (Table 7, read-out: IC50) did it give?
**A.** The IC50 was 2600 nM.

**Q.** With `CC(C)c1cc(-c2nnc(O)n2-c2ccc(OCCN3CCOCC3)nc2)c(O)cc1O` [Compound 20d, 4-(5-hydroxy-4-(6-(2-morpholinoethoxy)pyridin-3-yl)-4H-1,2,4-triazol-3-yl)-6-isopropylbenzene-1,3-diol] as the molecule, how does the IC50 (Table 9, read-out: IC50 Range) read?
**A.** The IC50 was 114 nM.

**Q.** `CC(C)c1cc(-c2nnc(O)n2-c2ccc(N(C)CCN(C)C)nc2)c(O)cc1O` [Compound 5d, 4-(4-(6-(N-(2-(dimethylamino)ethyl)-N-methylamino)pyridin-3-yl)-5-hydroxy-4H-1,2,4-triazol-3-yl)-6-isopropylbenzene-1,3-diol] was tested. Which IC50 (Table 9, read-out: IC50 Range) did it give?
**A.** The IC50 was 220 nM.

**Q.** For `CC(C)c1cc(-c2nnc(S)n2-c2cccc(S(N)(=O)=O)c2)c(O)cc1O` [Compound 14d, 3-(3-(2,4-dihydroxy-5-isopropylphenyl)-5-mercapto-4H-1,2,4-triazol-4-yl)benzenesulfonamide], which IC50 (Table 9, read-out: IC50 Range) is on record?
**A.** The IC50 was 336 nM.

**Q.** `COC(CN(C)c1ccc(-n2c(O)nnc2-c2cc(C(C)C)c(O)cc2O)cn1)OC` [Compound 2d, 4-(4-(6-(N-(2,2-dimethoxyethyl)-N-methylamino)pyridin-3-yl)-5-hydroxy-4H-1,2,4-triazol-3-yl)-6-isopropylbenzene-1,3-diol] was tested. Which IC50 (Table 9, read-out: IC50 Range) did it give?
**A.** The IC50 was 107 nM.

**Q.** How did the IC50 (Table 7, read-out: IC50) turn out when `CC(C)c1cc(-c2nnc(NC(=O)Cc3ccccc3)n2-c2ccc3c(ccn3C)c2)c(O)cc1O` [Compound 16a, N-(5-(2,4-dihydroxy-5-isopropylphenyl)-4-(1-methyl-1H-indol-5-yl)-4H-1,2,4-triazol-3-yl)-2-phenylacetamide] was run?
**A.** The IC50 was 1460 nM.

**Q.** For `CC(C)c1cc(-c2nnc(O)n2-c2ccc(N3CCN(C)CC3)nc2)c(O)cc1O` [Compound 9d, 4-(5-hydroxy-4-(6-(4-methylpiperazin-1-yl)pyridin-3-yl)-4H-1,2,4-triazol-3-yl)-6-isopropylbenzene-1,3-diol dihydrochloride], which IC50 (Table 9, dihydrochloride, read-out: IC50 Range) is on record?
**A.** Its IC50 is 220 nM.

**Q.** How did the IC50 (Table 7, read-out: IC50) turn out when `COCC(=O)Nc1nnc(-c2cc(C(C)C)c(O)cc2O)n1-c1ccc2c(ccn2C)c1` [Compound 13a, N-(5-(2,4-dihydroxy-5-isopropylphenyl)-4-(1-methyl-1H-indol-5-yl)-4H-1,2,4-triazol-3-yl)-2-methoxyacetamide] was run?
**A.** The IC50 was 1800 nM.

**Q.** With `CC(C)c1cc(-c2nnc(O)n2-c2ccc(N(C)C)c(S(N)(=O)=O)c2)c(O)cc1O` [Compound 13d, 5-(3-(2,4-dihydroxy-5-isopropylphenyl)-5-hydroxy-4H-1,2,4-triazol-4-yl)-2-(dimethylamino)benzene sulfonamide hydrochloride] as the molecule, how does the IC50 (Table 9, hydrochloride, read-out: IC50 Range) read?
**A.** Its IC50 is 207 nM.

**Q.** Which IC50 (Table 8, read-out: IC50) does the source give for `CC(C)c1cc(-c2nn(COC(=O)C(N)C(C)C)c(=O)n2-c2ccc3c(ccn3C)c2)c(O)cc1O` (stereo not shown) [Compound 12b, (3-(2,4-dihydroxy-5-isopropylphenyl)-4-(1-methyl-1H-indol-5-yl)-5-oxo-4,5-dihydro-1H-1,2,4-triazol-1-yl)methyl 2-amino-3-methylbutanoate] here?
**A.** The IC50 was 29 nM.
